Source: patent publication US20100280975A1, “SYSTEMS FOR CLINICAL TRIALS” (WisTa Laboratories Ltd., priority 2007, published 2010)

Assays:
[1] = test system: mild and moderate dementia of the Alzheimer type; assay: rember™ study: ADAS-cog change over 50 weeks, linear imputation for fit-survivor bias; format: in vivo, human; settings: for Estimated change from baseline, Least Exposed Dose comparator method / Estimated effect size, Least Exposed Dose comparator method: 50 weeks; for Estimated effect size, Least Exposed Dose comparator method: vs placebo-low arm; for Effect size inferred from least-squares analysis at 50 weeks / Effect size inferred from mixed effects analysis at 50 weeks: vs inferred placebo
From the text: A method has been developed by the inventors which has not been described previously which permits unbiased correction for the fit-survivor phenomenon. […] If a patient who was CDR-moderate at baseline discontinued medication at some time after 24 weeks, a straight line is fitted to the graph of available ADAS-cog change scores against visit-date for the available data for each subject. The line was not forced to pass through zero, to allow for placebo effect, and because the first visit is subject to random fluctuations. The use of a straight-line fit per-subject is supported by the large studies of Stern et al., (1994), Doraiswamy et al., (2001) and Winblad, B., Wimo, A., Engedal, K., Soininen, H., Verhey, F., Waldemar, G., Wetterholm, A. L., Haglund, A., Zhang, R., Schindler, R. (2006) 3-year study of donepezil therapy in Alzheimer's disease: effects of early and continuous therapy. […] The same approach can be applied to other outcome measures for which there were assessments scheduled after 24 weeks.
Subjects originally randomized to placebo were switched to the low (100 mg) dose bd after 24 weeks. This is referred to as the “placebo-low” treatment arm.
In this chart, the labelling conventions of “placlow” refers to subjects randomised to placebo and changed to low (100 mg) bd after 24 weeks, “low” refers to low (100 mg) dose tid, “30 mg” refers to 30 mg dose tid and “60 mg” refers to 60 mg dose tid.

[2] = test system: mild and moderate dementia of the Alzheimer type; assay: Mild-brought-forward confirmatory analysis of ADAS-cog over 25 weeks; format: in vivo, human; settings: for Mild-brought-forward CDR-mild effect size over 25 weeks / Mild-brought-forward CDR-moderate effect size over 25 weeks / Mild-brought-forward confirmatory analysis, overall effect size over 25 weeks: vs placebo/placebo-low; for Mild-brought-forward confirmatory analysis, overall change from baseline over 25 weeks: whole population, mixed-effects model
[3] = test system: mild and moderate dementia of the Alzheimer type; assay: rember™ study: MMSE over 50 weeks; format: in vivo, human
From the text: Another standardised test is the Mini-Mental State Examination [MMSE] which was proposed as a simple and quickly administered method for grading cognitive function (Folstein M F, Folstein S E & McHugh P R. ‘Mini-mental state’. A practical method for grading the cognitive state of patients for the clinician. Journal of Psychiatric Research 1975 12 189-198.). The MMSE is the most widely used cognitive screening instrument for the detection of cognitive dysfunction due to dementia in geriatric and psychiatric patients (Tombaugh T N & McIntyre N J. The mini-mental state examination: a comprehensive review. Journal of the American Geriatric Society 1992 40 922-935). The MMSE evaluates orientation, memory, attention and language functions.
The mean decline observed over the 50-week study in placebo-treated subjects was 7.8 ADAS-cog units (FIG. 19). […] On the ADAS-cog scale, about 60% of subjects improved or stayed the same at 50 weeks. On the MMSE scale, 62% improved or stayed the same at 50 weeks. The odds of a patient not declining on either scale were about 3.4 times better at the 60 mg dose than on placebo-low. The corresponding effect sizes were −6.8 ADAS-cog units and 3.2 MMSE units over the 50-week trial.

[4] = test system: CDR-moderate subjects; assay: rember™ study: NPI (Neuropsychiatric Inventory) over 50 weeks; format: in vivo, human; settings: vs placebo-low arm
[5] = Adverse effects in the rember™ trial; format: in vivo, human
Procedure: Thus subjects in the Least Exposed Dose arm (ie subjects switched to the low (100 mg) dose after 6 months) who continued to decline withdrew from the study largely after 24 weeks. […] However, biased withdrawal was not a factor in CDR-mild subjects in the same low (100 mg) comparator treatment arm. Therefore the primary driver of non-random withdrawal in the rember™ trial was the experience of continuing rapid decline which was most apparent in the CDR-moderate group.

[6] = test system: mild and moderate dementia of the Alzheimer type; assay: rember™ Phase 2 study: ADAS-cog change over 24 weeks; settings: for Estimate, ADAS-cog change vs placebo, LM (ANCOVA) analysis: 24-week time-point

For `CN(C)c1ccc2nc3ccc(=[N+](C)C)cc-3sc2c1` [rember™, methylthioninium chloride], the “initial symptomatic improvement at 15 weeks, ADAS-cog” value ([1]; 60 mg dose) was 1.6 ADAS-cog units, the “subjects improved or stayed the same on the ADAS-cog scale at 50 weeks” value ([1]; 60 mg tid) was “about 60%” and the “Estimated change from baseline, Least Exposed Dose comparator method” value ([1]; 30 mg tid) was 3.95 ADAS-cog units. For the same compound, the “Estimated change from baseline, Least Exposed Dose comparator method” value ([1]; low (100 mg) tid) was 4.00 ADAS-cog units, the “Estimated effect size, Least Exposed Dose comparator method” value (“Estimated effect size” below) ([1]; 30 mg tid) was −2.80 ADAS-cog units and the “Estimated effect size” value ([1]; 60 mg tid) was −5.71 ADAS-cog units. For the same compound, the “Estimated effect size” value ([1]; low (100 mg) tid) was −2.76 ADAS-cog units, the “Effect size inferred from least-squares analysis at 50 weeks” value ([1]; 30 mg tid) was −4.37 ADAS-cog units and the “Effect size inferred from mixed effects analysis at 50 weeks” value ([1]; 30 mg tid) was −3.87 ADAS-cog units. The “Effect size inferred from least-squares analysis at 50 weeks” value ([1]; 60 mg tid) was −6.50 ADAS-cog units, the “Effect size inferred from least-squares analysis at 50 weeks” value ([1]; low (100 mg) tid) was −3.59 ADAS-cog units and the “Effect size inferred from mixed effects analysis at 50 weeks” value ([1]; low (100 mg) tid) was −4.04 ADAS-cog units. For the same compound, the “Mild-brought-forward CDR-mild change over 25 weeks” value ([2]; 30 mg) was 3.07 ADAS-cog units, the “Mild-brought-forward CDR-mild change over 25 weeks” value ([2]; 60 mg) was 1.07 ADAS-cog units and the “Mild-brought-forward CDR-mild change over 25 weeks” value ([2]; low (100 mg)) was 3.60 ADAS-cog units. For the same compound, the “Mild-brought-forward CDR-mild effect size over 25 weeks” value ([2]; 30 mg) was −1.19 ADAS-cog units, the “Mild-brought-forward CDR-mild effect size over 25 weeks” value ([2]; 60 mg) was −3.19 ADAS-cog units and the “Mild-brought-forward CDR-mild effect size over 25 weeks” value ([2]; low (100 mg)) was −0.66 ADAS-cog units. For the same compound, the “Mild-brought-forward CDR-moderate change over 25 weeks” value ([2]; 60 mg) was 0.30 ADAS-cog units, the “Mild-brought-forward CDR-moderate change over 25 weeks” value ([2]; low (100 mg)) was 4.82 ADAS-cog units and the “Mild-brought-forward CDR-moderate effect size over 25 weeks” value ([2]; 30 mg) was 4.33 ADAS-cog units. For the same compound, the “Mild-brought-forward CDR-moderate effect size over 25 weeks” value ([2]; 60 mg) was −5.67 ADAS-cog units, the “Mild-brought-forward CDR-moderate effect size over 25 weeks” value ([2]; low (100 mg)) was −0.54 ADAS-cog units and the “Mild-brought-forward confirmatory analysis, overall effect size over 25 weeks” value ([2]; 30 mg) was −2.39 ADAS-cog units. For the same compound, the “Mild-brought-forward confirmatory analysis, overall effect size over 25 weeks” value ([2]; 60 mg) was −3.85 ADAS-cog units, the “Mild-brought-forward confirmatory analysis, overall effect size over 25 weeks” value ([2]; low (100 mg)) was −0.84 ADAS-cog units and the “Mild-brought-forward confirmatory analysis, overall change from baseline over 25 weeks” value ([2]; 30 mg) was 2.26 ADAS-cog units. The “Mild-brought-forward confirmatory analysis, overall change from baseline over 25 weeks” value ([2]; 60 mg) was 0.78 ADAS-cog units, the “Mild-brought-forward confirmatory analysis, overall change from baseline over 25 weeks” value ([2]; low (100 mg)) was 3.81 ADAS-cog units and the “initial symptomatic improvement at 15 weeks, MMSE” value ([3]; 60 mg dose) was 0.8 MMSE units. The “effect size on MMSE over the 50-week trial” value ([3]; 60 mg tid) was 3.2 MMSE units, the “subjects improved or stayed the same on the MMSE scale at 50 weeks” value ([3]; 60 mg tid) was 62% and the “NPI carer-distress scale, best effect size over 50 weeks” value [4] was −4.6 units. For the same compound, the “NPI patient-disturbance scale, best effect size over 50 weeks” value [4] was −9.2 units, the adverse effects ([5]; low (100 mg) bd, second 6-months of the study) was “adverse effects, most notably diarrhea” and the haematological side effects ([5]; tid vs. bd dosing regimes) was “showed a clear dose-response profile”. For the same compound, the “effect size in the entire ITT population of mild and moderate AD” value ([6]; 60 mg tid, OC and LOCF analyses, 24 weeks, pooled CDR-mild and CDR-moderate) was −1.0 to −1.2 ADAS-cog units, the “Estimate, ADAS-cog change vs placebo, LM (ANCOVA) analysis” value (“Estimate, ADAS-cog change vs placebo, LM” for short) ([6]; ITT/LOCF, with interaction term, CDR-mild, 60 mg tid) was −0.20 ADAS-cog units and the “Estimate, ADAS-cog change vs placebo, LM” value ([6]; ITT/LOCF, with interaction term, CDR-mild, low (100 mg) tid) was −0.79 ADAS-cog units. The “Estimate, ADAS-cog change vs placebo, LM” value ([6]; ITT/LOCF, with interaction term, CDR-moderate, 30 mg tid) was −3.00 ADAS-cog units, the “Estimate, ADAS-cog change vs placebo, LM” value ([6]; ITT/LOCF, with interaction term, CDR-moderate, low (100 mg) tid) was −0.40 ADAS-cog units and the “Estimate, change in ADAS-cog score vs intercept, least squares” value ([6]; ITT/LOCF, with interaction term, week 24, CDR-mild, 30 mg tid) was 0.46 ADAS-cog units.
